The assay concerns the target C5 (Homo sapiens, UniProt P01031). As to the kind of experiment: Biacore multi-cycle kinetics on human C5. The format is binding. As to conditions: for mean stoichiometric ratio: measured Rmax divided by theoretical Rmax; for koff: read-out: mean Koff; for kon: read-out: mean Kon. Here is the method:
Binding of knob domain peptides to human C5 was measured by SPR, using a multi-cycle kinetics method as follows:
Kinetics were measured using a Biacore 8K (GE Healthcare) with a CM5 chip, which was prepared as follows: EDC/NHS was mixed at 1:1 ratio (flow rate, 10 μL/min; contact time, 30 seconds), human C5 protein at 1 μg/mL in pH 4.5 sodium-acetate buffer, were injected over flow cell one only (flow rate, 10 μL/min; contact time, 60 seconds). Final immobilization levels in the range of 2000-3000 response units (RU) were obtained, to yield theoretical Rmax values of ˜50-60 RU. Serial dilutions of peptide were prepared in HBS-EP buffer and injected (flow rate, 30 μL/min; contact time, 240 seconds; dissociation time, 6000 seconds). After each injection, the surface was regenerated with two sequential injections of 2M MgCl2 (flow rate, […]; contact time, 30 seconds). Binding to the reference surface was subtracted, and the data were fitted to a single site binding model, using Biacore evaluation software.
Background: In SPR one partner is held on a chip, and binding of the other changes the refractive index at the surface.

Setting [1] is: multi-cycle kinetics, n = 3 experiments.

Like-named read-outs stand apart in the source and are kept apart here. Bridge positions count the residues as written; N and C are the ends. Peptide text beside a SMILES is read from it.

Chain of C5 (P01031 19-1676): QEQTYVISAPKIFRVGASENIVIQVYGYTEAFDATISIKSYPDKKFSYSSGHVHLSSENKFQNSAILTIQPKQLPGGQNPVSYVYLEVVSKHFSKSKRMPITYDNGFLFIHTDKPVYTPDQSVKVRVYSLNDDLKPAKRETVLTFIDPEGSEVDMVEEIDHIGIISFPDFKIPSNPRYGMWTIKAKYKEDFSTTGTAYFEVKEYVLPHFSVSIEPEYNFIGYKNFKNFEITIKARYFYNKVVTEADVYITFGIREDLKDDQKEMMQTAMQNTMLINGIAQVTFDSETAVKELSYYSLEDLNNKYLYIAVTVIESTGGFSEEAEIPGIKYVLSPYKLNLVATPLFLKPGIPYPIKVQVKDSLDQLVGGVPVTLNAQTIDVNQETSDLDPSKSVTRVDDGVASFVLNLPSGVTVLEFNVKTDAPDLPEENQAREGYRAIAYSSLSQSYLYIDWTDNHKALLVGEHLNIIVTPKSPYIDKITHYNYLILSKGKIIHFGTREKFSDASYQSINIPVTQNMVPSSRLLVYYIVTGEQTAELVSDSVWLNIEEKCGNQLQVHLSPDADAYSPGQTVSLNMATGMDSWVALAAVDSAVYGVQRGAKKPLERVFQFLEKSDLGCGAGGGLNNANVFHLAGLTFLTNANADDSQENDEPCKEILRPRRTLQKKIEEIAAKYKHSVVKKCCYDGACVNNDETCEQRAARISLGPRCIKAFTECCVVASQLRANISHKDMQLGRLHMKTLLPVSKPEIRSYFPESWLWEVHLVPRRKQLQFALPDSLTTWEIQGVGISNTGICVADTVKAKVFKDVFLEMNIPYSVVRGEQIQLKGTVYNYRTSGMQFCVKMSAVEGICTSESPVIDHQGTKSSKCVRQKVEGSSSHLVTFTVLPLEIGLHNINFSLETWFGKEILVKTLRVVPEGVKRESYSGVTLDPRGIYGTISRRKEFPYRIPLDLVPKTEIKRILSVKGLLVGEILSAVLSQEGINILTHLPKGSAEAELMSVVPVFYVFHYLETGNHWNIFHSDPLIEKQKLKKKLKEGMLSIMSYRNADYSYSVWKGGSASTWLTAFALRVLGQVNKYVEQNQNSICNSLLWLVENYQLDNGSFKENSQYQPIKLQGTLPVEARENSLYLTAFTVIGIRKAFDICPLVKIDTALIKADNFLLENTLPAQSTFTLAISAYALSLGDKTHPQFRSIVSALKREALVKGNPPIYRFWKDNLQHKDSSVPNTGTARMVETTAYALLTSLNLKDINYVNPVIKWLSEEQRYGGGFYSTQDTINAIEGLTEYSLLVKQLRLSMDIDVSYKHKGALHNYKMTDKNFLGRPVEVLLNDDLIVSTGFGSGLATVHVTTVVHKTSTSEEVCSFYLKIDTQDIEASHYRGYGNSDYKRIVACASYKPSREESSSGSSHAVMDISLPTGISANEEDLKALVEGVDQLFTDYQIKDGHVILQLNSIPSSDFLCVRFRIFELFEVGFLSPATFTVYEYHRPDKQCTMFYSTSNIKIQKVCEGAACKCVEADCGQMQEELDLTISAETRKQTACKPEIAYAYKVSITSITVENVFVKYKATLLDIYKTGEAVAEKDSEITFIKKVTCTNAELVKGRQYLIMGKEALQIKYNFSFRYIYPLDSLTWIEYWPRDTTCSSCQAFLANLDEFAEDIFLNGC

Consider `CC[C@H](C)[C@@H]1NC(=O)[C@H](C)NC(=O)[C@H](C(C)C)NC(=O)CNC(=O)[C@@H]2CSSC[C@@H](C(=O)NCC(=O)N[C@@H](Cc3c[nH]cn3)C(=O)N[C@@H](C)C(=O)N[C@@H](CC(C)C)C(=O)N[C@@H](CC(N)=O)C(=O)N[C@@H](CO)C(=O)NCC(=O)N3CCC[C@H]3C(=O)N[C@@H](CC(N)=O)C(=O)N[C@H](C(=O)N[C@@H](CO)C(=O)N3CCC[C@H]3C(=O)N[C@@H](Cc3ccc(O)cc3)C(=O)N[C@H](C(=O)N[C@@H](CO)C(=O)N[C@H](C(=O)O)[C@@H](C)O)C(C)C)[C@@H](C)CC)NC(=O)CNC(=O)[C@H](Cc3c[nH]c4ccccc34)NC(=O)[C@H](CCCNC(=N)N)NC(=O)CNC(=O)[C@H](CSSC[C@H](NC(=O)[C@@H](N)[C@@H](C)O)C(=O)N3CCC[C@H]3C(=O)N[C@@H](CCC(=O)O)C(=O)NCC(=O)N[C@@H](Cc3c[nH]c4ccccc34)C(=O)N[C@@H](CO)C(=O)N[C@@H](CCC(=O)O)C(=O)N2)NC(=O)[C@H](CCC(=O)O)NC(=O)[C@H](Cc2ccc(O)cc2)NC(=O)CNC(=O)[C@H](Cc2ccc(O)cc2)NC1=O` [K92chemFE F26A] (H-TCPEGWSECGVAIYGYECGRWGCGHALNSGPNISPYVST-OH; disulfide 2-18, 9-23; N-terminus assumed), for which the koff (commonly a measure of how fast the partners let go of each other) is 0.00328 s⁻¹ and the kon (in general, the rate constant with which the complex forms) was determined as 184000 M⁻¹ s⁻¹. Also, under “n = 3 experiments”, the mean stoichiometric ratio amounted to 0.65.

Regarding `CC[C@H](C)[C@@H]1NC(=O)[C@H](C)NC(=O)[C@H](C(C)C)NC(=O)CNC(=O)[C@@H]2CSSC[C@@H](C(=O)NCC(=O)N[C@@H](Cc3c[nH]cn3)C(=O)N[C@@H](Cc3ccccc3)C(=O)N[C@@H](CC(C)C)C(=O)N[C@@H](CC(N)=O)C(=O)N[C@@H](CO)C(=O)NCC(=O)N3CCC[C@H]3C(=O)N[C@@H](CC(N)=O)C(=O)N[C@H](C(=O)N[C@@H](CO)C(=O)N3CCC[C@H]3C(=O)N[C@@H](Cc3ccc(O)cc3)C(=O)N[C@H](C(=O)N[C@@H](CO)C(=O)N[C@H](C(=O)O)[C@@H](C)O)C(C)C)[C@@H](C)CC)NC(=O)CNC(=O)[C@H](Cc3c[nH]c4ccccc34)NC(=O)[C@H](CCCNC(=N)N)NC(=O)CNC(=O)[C@H](CSSC[C@H](NC(=O)[C@@H](N)[C@@H](C)O)C(=O)N3CCC[C@H]3C(=O)N[C@@H](CCC(=O)O)C(=O)NCC(=O)N[C@@H](C)C(=O)N[C@@H](CO)C(=O)N[C@@H](CCC(=O)O)C(=O)N2)NC(=O)[C@H](CCC(=O)O)NC(=O)[C@H](Cc2ccc(O)cc2)NC(=O)CNC(=O)[C@H](Cc2ccc(O)cc2)NC1=O` [K92chemFE W6A] (H-TCPEGASECGVAIYGYECGRWGCGHFLNSGPNISPYVST-OH; disulfide 2-18, 9-23; N-terminus assumed), under “n = 3 experiments”, the mean stoichiometric ratio is on record as 0.60. For the same molecule, under setting [1], the off-rate constant (koff) amounted to 0.00157 s⁻¹ and the on-rate (kon) was determined as 7980 M⁻¹ s⁻¹.

Consider `CC[C@H](C)[C@@H]1NC(=O)[C@H](C)NC(=O)[C@H](C(C)C)NC(=O)CNC(=O)[C@@H]2CSSC[C@@H](C(=O)NCC(=O)N[C@@H](Cc3c[nH]cn3)C(=O)N[C@@H](Cc3ccccc3)C(=O)N[C@@H](CC(C)C)C(=O)N[C@@H](CC(N)=O)C(=O)N[C@@H](CO)C(=O)NCC(=O)N3CCC[C@H]3C(=O)N[C@@H](CC(N)=O)C(=O)N[C@H](C(=O)N[C@@H](CO)C(=O)N3CCC[C@H]3C(=O)N[C@@H](Cc3ccc(O)cc3)C(=O)N[C@H](C(=O)N[C@@H](CO)C(=O)N[C@H](C(=O)O)[C@@H](C)O)C(C)C)[C@@H](C)CC)NC(=O)CNC(=O)[C@H](C)NC(=O)[C@H](CCCNC(=N)N)NC(=O)CNC(=O)[C@H](CSSC[C@H](NC(=O)[C@@H](N)[C@@H](C)O)C(=O)N3CCC[C@H]3C(=O)N[C@@H](CCC(=O)O)C(=O)NCC(=O)N[C@@H](Cc3c[nH]c4ccccc34)C(=O)N[C@@H](CO)C(=O)N[C@@H](CCC(=O)O)C(=O)N2)NC(=O)[C@H](CCC(=O)O)NC(=O)[C@H](Cc2ccc(O)cc2)NC(=O)CNC(=O)[C@H](Cc2ccc(O)cc2)NC1=O` [K92chemFE W21A] (H-TCPEGWSECGVAIYGYECGRAGCGHFLNSGPNISPYVST-OH; disulfide 2-18, 9-23; N-terminus assumed), for which the mean stoichiometric ratio (n = 3 experiments) is 0.62. Moreover, under setting [1], the off-rate (koff) is 0.00848 s⁻¹ and the kon was determined as 17400 M⁻¹ s⁻¹.

With `CC[C@H](C)[C@@H]1NC(=O)[C@H](C)NC(=O)[C@H](C(C)C)NC(=O)CNC(=O)[C@@H]2CSSC[C@@H](C(=O)NCC(=O)N[C@@H](Cc3c[nH]cn3)C(=O)N[C@@H](Cc3ccccc3)C(=O)N[C@@H](CC(C)C)C(=O)N[C@@H](CC(N)=O)C(=O)N[C@@H](CO)C(=O)NCC(=O)N3CCC[C@H]3C(=O)N[C@@H](CC(N)=O)C(=O)N[C@H](C(=O)N[C@@H](CO)C(=O)N3CCC[C@H]3C(=O)N[C@@H](Cc3ccc(O)cc3)C(=O)N[C@H](C(=O)N[C@@H](CO)C(=O)N[C@H](C(=O)O)[C@@H](C)O)C(C)C)[C@@H](C)CC)NC(=O)CNC(=O)[C@H](Cc3c[nH]cn3)NC(=O)[C@H](CCCNC(=N)N)NC(=O)CNC(=O)[C@H](CSSC[C@H](NC(=O)[C@@H](N)[C@@H](C)O)C(=O)N3CCC[C@H]3C(=O)N[C@@H](CCC(=O)O)C(=O)NCC(=O)N[C@@H](Cc3c[nH]c4ccccc34)C(=O)N[C@@H](CO)C(=O)N[C@@H](CCC(=O)O)C(=O)N2)NC(=O)[C@H](CCC(=O)O)NC(=O)[C@H](Cc2ccc(O)cc2)NC(=O)CNC(=O)[C@H](Cc2ccc(O)cc2)NC1=O` [K92chemFE W21H] (H-TCPEGWSECGVAIYGYECGRHGCGHFLNSGPNISPYVST-OH; disulfide 2-18, 9-23; N-terminus assumed), the off-rate constant (koff) was 0.000612 s⁻¹ and the kon turned out to be 425000 M⁻¹ s⁻¹. Where the note is “n = 3 experiments”, the mean stoichiometric ratio came to 0.69.

Consider `CC[C@H](C)[C@@H]1NC(=O)[C@H](C)NC(=O)[C@H](C(C)C)NC(=O)CNC(=O)[C@@H]2CSSC[C@@H](C(=O)NCC(=O)N[C@@H](Cc3c[nH]cn3)C(=O)N[C@@H](Cc3ccccc3)C(=O)N[C@@H](CC(C)C)C(=O)N[C@@H](CC(N)=O)C(=O)N[C@@H](CO)C(=O)NCC(=O)N3CCC[C@H]3C(=O)N[C@@H](CC(N)=O)C(=O)N[C@H](C(=O)N[C@@H](CO)C(=O)N3CCC[C@H]3C(=O)N[C@@H](Cc3ccc(O)cc3)C(=O)N[C@H](C(=O)N[C@@H](CO)C(=O)N[C@H](C(=O)O)[C@@H](C)O)C(C)C)[C@@H](C)CC)NC(=O)CNC(=O)[C@H](Cc3c[nH]c4ccccc34)NC(=O)[C@H](CCCNC(=N)N)NC(=O)CNC(=O)[C@H](CSSC[C@H](NC(=O)[C@@H](N)[C@@H](C)O)C(=O)N3CCC[C@H]3C(=O)N[C@@H](CCC(=O)O)C(=O)NCC(=O)N[C@@H](Cc3c[nH]c4ccccc34)C(=O)N[C@@H](CO)C(=O)N[C@@H](CCC(=O)O)C(=O)N2)NC(=O)[C@H](CCC(=O)O)NC(=O)[C@H](Cc2ccc(O)cc2)NC(=O)CNC(=O)[C@H](C)NC1=O` [K92chemFE Y14A] (H-TCPEGWSECGVAIAGYECGRWGCGHFLNSGPNISPYVST-OH; disulfide 2-18, 9-23; N-terminus assumed), for which, where the note is “n = 3 experiments”, the mean stoichiometric ratio was 0.41. Further, under setting [1], the koff amounted to 0.0001 s⁻¹ and the kon was determined as 27200 M⁻¹ s⁻¹.

Turning to `CC[C@H](C)[C@@H]1NC(=O)[C@H](C)NC(=O)[C@H](C(C)C)NC(=O)CNC(=O)[C@@H]2CSSC[C@@H](C(=O)NCC(=O)N[C@@H](Cc3c[nH]cn3)C(=O)N[C@@H](Cc3ccccc3)C(=O)N[C@@H](CC(C)C)C(=O)N[C@@H](CC(N)=O)C(=O)N[C@@H](CO)C(=O)NCC(=O)N3CCC[C@H]3C(=O)N[C@@H](CC(N)=O)C(=O)N[C@H](C(=O)N[C@@H](CO)C(=O)N3CCC[C@H]3C(=O)N[C@@H](Cc3ccc(O)cc3)C(=O)N[C@H](C(=O)N[C@@H](CO)C(=O)N[C@H](C(=O)O)[C@@H](C)O)C(C)C)[C@@H](C)CC)NC(=O)CNC(=O)[C@H](Cc3c[nH]c4ccccc34)NC(=O)[C@H](CCCNC(=N)N)NC(=O)CNC(=O)[C@H](CSSC[C@H](NC(=O)[C@@H](N)[C@@H](C)O)C(=O)N3CCC[C@H]3C(=O)N[C@@H](CCC(=O)O)C(=O)NCC(=O)N[C@@H](Cc3c[nH]c4ccccc34)C(=O)N[C@@H](CO)C(=O)N[C@@H](CCC(=O)O)C(=O)N2)NC(=O)[C@H](CCC(=O)O)NC(=O)[C@H](C)NC(=O)CNC(=O)[C@H](Cc2ccc(O)cc2)NC1=O` [K92chemFE Y16A] (H-TCPEGWSECGVAIYGAECGRWGCGHFLNSGPNISPYVST-OH; disulfide 2-18, 9-23; N-terminus assumed), the mean stoichiometric ratio (n = 3 experiments) is listed as 0.66. For the same molecule, under setting [1], the koff was found to be 0.786 s⁻¹ and the on-rate (kon) worked out at 1.56e+07 M⁻¹ s⁻¹.

On to “K92 chemFE W21H: W21H mutant of K92chemFE (TCPEGWSECGVAIYGYECGRHGCGHFLNSGPNISPYVST)”, for which, where the note is “chemical knob domains and variants, result in words”, the “binding to human C5” value was “much-lower loss of affinity”.

The record behind these values is patent US20240024520A1, “AUTONOMOUS KNOB DOMAIN PEPTIDES” (UCB BIOPHARMA SRL, priority 2020, published 2024).
